Measured values from publication PMC8117066 (Behavioural brain research, 2021).

How the values were obtained:
[1] = target: Dopamine transporter (DAT) (Mus musculus, UniProt Q61327, T53A); assay: inhibition of [3H]DA uptake in mouse striatal synaptosomes; format: biochemical
[2] = target: Dopamine transporter (DAT) (Mus musculus, UniProt Q61327); assay: as above; format: biochemical
[3H]DA uptake kinetics = substrate: NCCc1ccc(O)c(O)c1; assay: [3H]DA uptake kinetics; format: biochemical, Mus musculus

Row | Molecule | IC50 [1] | IC50 [2] | Km ([3H]DA uptake kinetics)
1 | CN[C@@H](C)Cc1ccccc1 [METH] | 262 ± 25 nM | 280 ± 40 nM | –
2 | CC(N)Cc1ccccc1 (centres unmarked) [amphetamine] | 198 ± 68 nM | 183 ± 23 nM | –
3 | COC(=O)[C@H]1[C@@H](OC(=O)c2ccccc2)C[C@@H]2CC[C@H]1N2C [cocaine] | 1270 ± 348 nM | 268 ± 58 nM | –
4 | Dopamine transporter (DAT) (Mus musculus) (protein) MSKSKCSVGPMSSVVAPAKEPNAVGPREVELILVKEQNGVQLTNSTLINPPQTPVEVQERETWSKKIDFLLSVIGFAVDLANVWRFPYLCYKNGGGAFLVPYLLFMVIAGMPLFYMELALGQFNREGAAGVWKICPVLKGVGFTVILISFYVGFFYNVIIAWALHYFFSSFTMDLPWIHCNNTWNSPNCSDAHSSNSSDGLGLNDTFGTTPAAEYFERGVLHLHQSRGIDDLGPPRWQLTACLVLVIVLLYFSLWKGVKTSGKVVWITATMPYVVLTALLLRGVTLPGAMDGIRAYLSVDFYRLCEASVWIDAATQVCFSLGVGFGVLIAFSSYNKFTNNCYRDAIITTSINSLTSFSSGFVVFSFLGYMAQKHNVPIRDVATDGPGLIFIIYPEAIATLPLSSAWAAVFFLMLLTLGIDSAMGGMESVITGLVDEFQLLHRHRELFTLGIVLATFLLSLFCVTNGGIYVFTLLDHFAAGTSILFGVLIEAIGVAWFYGVQQFSDDIKQMTGQRPNLYWRLCWKLVSPCFLLYVVVVSIVTFRPPHYGAYIFPDWANALGWIIATSSMAMVPIYATYKFCSLPGSFREKLAYAITPEKDRQLVDRGEVRQFTLRHWLLV | – | – | 0.0778 ± 0.003009 µM
5 | Dopamine transporter (DAT) (Mus musculus; T53A) (protein) MSKSKCSVGPMSSVVAPAKEPNAVGPREVELILVKEQNGVQLTNSTLINPPQAPVEVQERETWSKKIDFLLSVIGFAVDLANVWRFPYLCYKNGGGAFLVPYLLFMVIAGMPLFYMELALGQFNREGAAGVWKICPVLKGVGFTVILISFYVGFFYNVIIAWALHYFFSSFTMDLPWIHCNNTWNSPNCSDAHSSNSSDGLGLNDTFGTTPAAEYFERGVLHLHQSRGIDDLGPPRWQLTACLVLVIVLLYFSLWKGVKTSGKVVWITATMPYVVLTALLLRGVTLPGAMDGIRAYLSVDFYRLCEASVWIDAATQVCFSLGVGFGVLIAFSSYNKFTNNCYRDAIITTSINSLTSFSSGFVVFSFLGYMAQKHNVPIRDVATDGPGLIFIIYPEAIATLPLSSAWAAVFFLMLLTLGIDSAMGGMESVITGLVDEFQLLHRHRELFTLGIVLATFLLSLFCVTNGGIYVFTLLDHFAAGTSILFGVLIEAIGVAWFYGVQQFSDDIKQMTGQRPNLYWRLCWKLVSPCFLLYVVVVSIVTFRPPHYGAYIFPDWANALGWIIATSSMAMVPIYATYKFCSLPGSFREKLAYAITPEKDRQLVDRGEVRQFTLRHWLLV | – | – | 0.07117 ± 0.006766 µM
